Read-outs that look alike come from different tables or passages of the source.

Series [1] concerns Leishmania braziliensis promastigotes. As to the kind of experiment: Leishmanicidal activity, promastigote growth (SYBR Green, 72 h). The format is cell-based, Leishmania (V.) braziliensis (MHOM/BR/1975/M2904). The note with it: Leishmania braziliensis, L. braziliensis promastigotes, max 200 μM, read-out: EC50. The protocol: The cultures were adjusted to 4 × 10^6 parasites per mL, and 50 μL of each culture was added on a test plate with 384 wells (Corning, #CLS3658), along with the controls and compounds to be tested. Previously diluted compounds in DMSO were added to plates in decreasing concentrations, with a maximum concentration of 200 μM. Parasites were exposed to a final concentration of DMSO in various dilutes (final = 0.5%), and the culture medium was used as the control for the experiment. […] After adding the lysis buffer, the plates were incubated in the dark for 2 h with gentle shaking. The readings were done using a SpectraMax M3 reader (excitation at 485 nm and emission at 535 nm).

Series [2] in a line: Cell viability / cytotoxicity assay (PrestoBlue, 72 h). The format is cell-based. Particulars: human. The protocol: THP-1 cells (American Type Cell Collection, #TIB-202) were acquired in 2019 and stored frozen in liquid nitrogen. The cells were then maintained in RPMI 1640 (Thermo Fisher Scientific, #S31800–022) at 37 °C in a 5% CO2 atmosphere and routinely tested for Mycoplasma contamination by PCR using the primers 5′-[…] and 5′-[…]. To test the toxicity of compounds, 5000 cells were added to 96-well plates with a final volume of 80 μL centrifuged at 400g for 2 min and incubated with 150 ng/mL of phorbol myristate acetate (Merck, #P8139) for 48 h. The medium was replaced, and after 24 h, the compounds were added and tested at decreasing concentrations starting from 200 μM (10 μL/well). After 72 h of incubation, 10 μL of PrestoBlue Cell Viability Reagent (Thermo Fisher Scientific, #A13262) was added per well. After adding the reagent, the cells were incubated for 2 h at 37 °C in a 5% CO2 atmosphere, and fluorescence readings were performed using the SpectraMax M3 reader (excitation at 560 nm and emission at 590 nm).

The nature of series [3]: Parallel artificial membrane permeability assay (PAMPA). The note with it: PBS pH 7.4/7.4, 6h at room temperature; for recovery at 6 h, 10 µM: PAMPA; for recovery at 6 h, 10 µM / Avg Log Pe (cm/sec) / Avg Pe: 10µM; for Pe (nm/sec) n=1: replicate n=1; for Pe (nm/sec) n=1 / Pe (nm/sec) n=2: 10µM (5% DMSO), LC-MS/MS; for Pe (nm/sec) n=2: replicate n=2. The protocol: Solutions of the compounds were prepared in duplicate by diluting the stock solutions (10 mM) in phosphate buffered saline (PBS) pH 7.4 at a final concentration of 10 μM (5% DMSO). The solutions diluted in PBS pH 7.4 were then added to the donor portion of the plate (300 μL/well), while in the acceptor portion PBS pH 7.4 (200 μL/well) was added. The two portions of the plate were then coupled, and the system was incubated for 6 h at room temperature. Samples of the initial donor solution (T0) were collected at the beginning (T0) and stored at 5 °C. The final concentrations of compounds in the donor, acceptor and T0 wells were quantified by LC-MS/MS.
On the technique in general: PAMPA measures passive passage across an artificial lipid membrane.

The target in the next series is LbDHODH (Leishmania braziliensis, UniProt E9AI53). As to the kind of experiment: biochemical. Particulars: for IC50: LbDHODH; for activity at 100 µM: LbDHODH remaining activity, compound 100 μM. The protocol:
To assess the ability of compounds 2a–2i to inhibit LbDHODH via covalent bond formation with Cys^131, we initially screened them at a concentration of 100 μM under two conditions: with and without a 4-h preincubation with the enzyme.
The experiments were performed in a 96-well microplate reader (SpectraMax Plus 384, Molecular Devices, USA), containing the […] of the buffer 60 mM DCIP, 50 mM Tris pH 8.15, 150 mM KCl, 0.1% Triton X-100, 50 μM DHO and 10 μM of LbDHODH at 165 nM. The reaction was monitored every 3 s at 610 nm over a period of 60 s, in triplicate, for the control and each concentration of the inhibitor. All assays were performed without incubation (0h) and with 4-h preincubation of the inhibitor with LbDHODH, using 5% DMSO (v/v) as control. […]. […] The resulting kobs values were plotted as a function of inhibitor concentration, and the data in the initial linear region was fit to determine the slope, which is kinact/KI. All regressions were performed with GraphPad Prism 9.

For series [4] the following is noted: mouse liver microsomes; for Raw data: analyte peak area, T=0: 0 min; for Raw data: analyte peak area, T=0 / Raw data: analyte peak area, T=5 / Raw data: analyte peak area, T=10 / Raw data: analyte peak area, T=20 / Raw data: analyte peak area, T=30 / Raw data: analyte peak area, T=60: raw LC-MS area; for Raw data: analyte peak area, T=10: 10 min; for Raw data: analyte peak area, T=30: 30 min; for Raw data: analyte peak area, T=60: 60 min. In general terms: Microsomes from liver hold many membrane-bound enzymes, among them those of drug oxidation.

Another series in a line: in vitro. The note with it: liver microsomes, pH 7.4, % Remaining, 1 µM; for remaining at 10 min, 1 µM: T=10 min; for remaining at 1 h, 1 µM: T=60 min, 60 min.
The target in another series is T1, HsDHODH (Homo sapiens, UniProt Q02127).
T1 construct: made in house
T1 sequence (Q02127 whole entry): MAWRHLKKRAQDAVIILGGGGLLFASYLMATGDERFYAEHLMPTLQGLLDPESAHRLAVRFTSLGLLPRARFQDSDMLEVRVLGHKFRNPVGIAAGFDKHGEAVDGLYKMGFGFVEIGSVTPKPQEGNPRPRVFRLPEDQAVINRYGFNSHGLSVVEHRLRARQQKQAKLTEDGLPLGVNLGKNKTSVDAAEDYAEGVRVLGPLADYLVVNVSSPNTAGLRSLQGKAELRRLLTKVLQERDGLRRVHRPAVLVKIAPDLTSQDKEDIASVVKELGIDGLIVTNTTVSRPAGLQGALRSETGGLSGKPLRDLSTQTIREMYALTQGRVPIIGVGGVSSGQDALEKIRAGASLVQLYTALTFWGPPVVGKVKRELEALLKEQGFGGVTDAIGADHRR
As to the kind of experiment: Selectivity assay: HsDHODH single-dose inhibition (DCIP reduction). The class given is biochemical. The note with it: HsDHODH remaining activity, 100 μM. The protocol:
[…]. This finding highlights the potential of barbituric acid derivatives as selective inhibitors of LbDHODH.
Human DHODH expression and purification were conducted following a protocol previously established in our laboratory. The purification was carried out by affinity chromatography on a Ni-NTA Agarose column (Qiagen[…] Cat. No. 30210). […] The reaction was performed in triplicate, initiated by adding 195 μL of reaction buffer to 5 μL of HsDHODH protein solution for a final concentration of 20 nM enzyme. As a blank, 195 μL of reaction buffer was added to 5 μL of Buffer A. The reaction was monitored at 610 nm every 3 s over 60 s. As a control, 5 μL of enzyme was added to 195 μL of reaction medium without compound. Enzymatic velocity was calculated, and the percentage of relative enzymatic activity was determined relative to the control.

[5] abbreviates: pH 7.4, % Recovery n=1, replicate n=1.
The mark [6] stands for this setting: pH 7.4, % Recovery n=2, replicate n=2.
Setting [7] is: pH 7.4, Avg % Recovery, average of n=2.
The mark [8] stands for this setting: mouse, n=1, mouse liver microsomes, n=1.
Setting [9] is: mouse, n=2, mouse liver microsomes, n=2.

Sequence of LbDHODH (E9AI53 entry or part of it): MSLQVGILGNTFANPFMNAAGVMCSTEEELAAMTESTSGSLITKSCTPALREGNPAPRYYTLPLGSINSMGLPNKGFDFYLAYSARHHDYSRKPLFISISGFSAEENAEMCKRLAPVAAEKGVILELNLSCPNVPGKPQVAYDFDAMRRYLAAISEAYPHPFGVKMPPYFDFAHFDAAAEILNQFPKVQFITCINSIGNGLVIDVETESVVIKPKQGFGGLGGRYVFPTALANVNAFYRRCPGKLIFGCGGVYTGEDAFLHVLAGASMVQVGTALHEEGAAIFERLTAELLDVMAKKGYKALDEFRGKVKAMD

Take `C[C@@H]1[C@H](O)[C@@H](C)/C=C/C=C/C=C/C=C/C=C/C=C/C=C/[C@H](O[C@@H]2O[C@H](C)[C@@H](O)[C@H](N)[C@@H]2O)C[C@@H]2O[C@](O)(C[C@@H](O)C[C@@H](O)[C@H](O)CC[C@@H](O)C[C@@H](O)CC(=O)O[C@H]1C)C[C@H](O)[C@H]2C(=O)O` [Amp. B, Amphotericin B, reference compound]: the EC50 in series [1] came to 0.4 ± 0.3 µM. Moreover, in series [2], it took 6 ± 2 µM to reach half-maximal cytotoxicity (CC50 at 72 h).

`NC(=O)N1c2ccccc2C=Cc2ccccc21` [Carbamazepine]: in series [3] (setting [5]), the recovery at 6 h, 10 µM was 100%. The recovery at 6 h, 10 µM in series [3] (setting [6]) was 92.5%. For the same molecule, the recovery at 6 h, 10 µM in series [3] (setting [7]) was 96.3%. Further, in series [3] (average of n=2), the “Avg Log Pe (cm/sec)” value is -5.1 cm/sec and the “Avg Pe” value is 7.83 ×10⁻⁶ cm/s. In series [3], the “Pe (nm/sec) n=1” value worked out at 80.3 nm/s and the “Pe (nm/sec) n=2” value came out at 76.4 nm/s.

As to `NS(=O)(=O)c1cc(C(=O)O)c(NCc2ccco2)cc1Cl` [Furosemide], the recovery at 6 h, 10 µM is 89.7% in series [3] (setting [5]), 91.4% in series [3] (setting [6]) and 90.6% in series [3] (setting [7]). Besides, the “Avg Pe” value in series [3] (average of n=2) was determined as 4.97e-05 ×10⁻⁶ cm/s. The “Pe (nm/sec) n=1” value in series [3] turned out to be 0.000533 nm/s. In addition, in series [3], the “Pe (nm/sec) n=2” value was 0.000461 nm/s.

With `O=C(O)c1cc(=O)[nH]c(=O)[nH]1` [Orotate, orotate], the 50% inhibitory concentration (IC50) against LbDHODH (IC50 4 h, 4-h preincubation) stood at 27 ± 1 µM; on LbDHODH (without preincubation, read-out: IC50 0 h), 57 ± 2 µM. Further, the activity at 100 µM is 27 ± 2% at LbDHODH (4-h preincubation, read-out: single dose (4 h) % activity) and 35 ± 4% on LbDHODH (without preincubation, read-out: single dose (0 h) % activity).

Take `CC(C)NCC(O)COc1cccc2ccccc12` (stereo not shown) [Propranolol]: in series [4] (replicate 1 (left block)), the “Raw data: analyte peak area, T=0” value amounted to 97333; the “Raw data: analyte peak area, T=10” value turned out to be 45227; the “Raw data: analyte peak area, T=30” value is reported as 21377; the “Raw data: analyte peak area, T=60” value was 15713. In addition, in series [4] (replicate 2 (right block)), the “Raw data: analyte peak area, T=0” value came out at 94436; the “Raw data: analyte peak area, T=10” value is on record as 43475; the “Raw data: analyte peak area, T=30” value was 25558; the “Raw data: analyte peak area, T=60” value came out at 15931. In addition, in series [4] (1 µM, 5 min, n=1), the “% Remaining, T=5 min, n=1” value is recorded as 58.1%. Moreover, the “% Remaining, T=20 min, n=1” value in series [4] (1 µM, 20 min, n=1) came out at 31.9%. In series [4] (5 min, replicate 1 (left block)), the “Raw data: analyte peak area, T=5” value stood at 56345. The “Raw data: analyte peak area, T=5” value in series [4] (5 min, replicate 2 (right block)) was 55807. In addition, in series [4] (20 min, replicate 1 (left block)), the “Raw data: analyte peak area, T=20” value is 29264. For the same molecule, in series [4] (20 min, replicate 2 (right block)), the “Raw data: analyte peak area, T=20” value is 29449. Moreover, the recovery at 6 h, 10 µM in series [3] (setting [5]) was found to be 85.7%. In series [3] (setting [6]), this molecule returned a recovery at 6 h, 10 µM of 82.4%. The molecule also had a recovery at 6 h, 10 µM in series [3] (setting [7]) of 84%. For the same molecule, in series [3] (average of n=2), the “Avg Log Pe (cm/sec)” value is -5.2 cm/sec and the “Avg Pe” value is 6.15 ×10⁻⁶ cm/s. Further, in series [3], the “Pe (nm/sec) n=1” value is 53.6 nm/s and the “Pe (nm/sec) n=2” value turned out to be 69.4 nm/s. In addition, the fraction remaining at 5 min, 1 μM in “in vitro” (male, CD1, mouse, T=5 min, n=2, mouse liver microsomes, 5 min, n=2) is 52.5%. In “in vitro” (setting [8]), this molecule returned an amount remaining at 10 min, 1 µM of 46.8% and an amount remaining at 1 h, 1 µM of 16%. In the series “in vitro” (setting [9]), this molecule yielded a fraction remaining at 10 min, 1 µM of 43.5% and a fraction remaining at 1 h, 1 µM of 15.5%. Moreover, the amount remaining at 20 min, 1 µM in “in vitro” (mouse, T=20 min, n=2, mouse liver microsomes, 20 min, n=2) came out at 31.2%. The fraction remaining at 0.5 h, 1 µM in “in vitro” (mouse, T=30 min, n=1, mouse liver microsomes, 30 min, n=1) stood at 22.7%.

On to `C/C(O)=C(\C#N)C(=O)Nc1ccc(C(F)(F)F)cc1` [Teriflunomide, reference compound], for which the activity at 100 µM was determined as 0.39 ± 0.04% at HsDHODH (4-h incubation, read-out: Single dose (4h) % activity) and 0.6 ± 0.1% on HsDHODH (without incubation, read-out: Single dose (0h) % activity).

Broadly, the EC50 is the midpoint of the concentration-response curve. A word on the CC50: it is the concentration that lowers cell viability or growth by half. A lower CC50 goes with greater toxicity to the cells. As usually defined, the IC50 is the concentration at which inhibition is half-maximal. A word on the amount remaining: it is the share of the starting amount still present when the sample was taken. High values mean less turnover, low ones more turnover.

For the origin of these results see article PMC12481576, “Barbituric Acid Derivatives as Covalent Inhibitors of Leishmania braziliensis Dihydroorotate Dehydrogenase” (Journal of Medicinal Chemistry, 2025).
